Measurements: patent publication US20250032425A1, “FIRST IN CLASS USE OF ESTROGEN RECEPTOR BETA AGONISTS IN TREATING ANGELMAN SYNDROME AND RELEVANT AUTISM SPECTRUM DISORDERS” (BROWN UNIVERSITY, priority 2023, published 2025)
Entries after “also recorded” stand apart in the source; their conditions may differ.

Experiments:
[1] = tested on: iOPCs treated with siUBE3A; test: EdU nuclear incorporation in iOPCs treated with siUBE3A; format: cell-based, human; settings: siUBE3A plus AC-186 at 10 μM for 24 hours
Description: The siRNAs targeting UBE3A (Thermo Fisher, #4390815 and #4390816), estrogen receptors (Thermo Scientific #145909 for ESRβ, #145539 for ESRα, and #4390824 for GPER), and negative control (Thermo Scientific, #AM4615) were obtained commercially. The 10-20 nM final concentration was used with Lipofectamine RNAiMAX transfection reagent (Thermo Scientific #13778075) and incubated for at least 48 hours before the treatments of therapeutic compounds or other reagents.
The EdU labeling kit from ThermoFisher Scientific (#C10637) was used to trace cell proliferation by incubating iOPCs with 2 μM EdU for three hours before fixation. Following EdU incorporation, cells were fixed in 4% paraformaldehyde, blocked with normal serum, and stained with primary antibodies, Rabbit anti-Ki67 and Mouse anti-UBE3A. These steps were conducted according to the manual of the labeling kit and also detailed immunofluorescence staining protocols described below, to ensure specific detection of the proliferation marker Ki67 and the ubiquitin-protein ligase UBE3A in the cells for subsequent imaging analysis.
For immunofluorescence with fixed cells in vitro, cultured cells were fixed in 4% PFA for 15 min at 37° C. followed by 0.25% TritonX-100 in PBS for 10 min at RT. Cells were blocked with 2% normal goat/donkey serum in PBS for 1 hour at RT. […]

[2] = tested on: UBE3A-deficient iOPCs and iOLs; test: Oligodendrocyte differentiation of UBE3A-deficient iOPCs into iOLs (immunoblotting of Ki67, MAG, CNPase); format: cell-based, human; settings: AC-186 (10 µM)
Description: FIG. 25C: Immunoblotting was conducted to assess the impact of UBE3A depletion on ESR-β expression during oligodendrocyte differentiation. Protein levels of ESR-β in UBE3A-deficient iOPCs and subsequently differentiated iOLs were quantified, normalized against the loading control GAPDH, and expressed relative to the iOPC+siNC control condition (set at 1.0). […] Levels of Ki67 and Myelin Associated Glycoprotein (MAG) were measured in UBE3A-deficient iOPCs and iOLs differentiated from them, normalized against GAPDH, and compared to the iOPC+siNC condition. n=4 experiments. FIG. 25E: Immunoblotting to examine the role of UBE3A for OPC self-renewal and oligodendrocyte differentiation across different developmental stages. Expression of maturation and myelination markers (MBP, MAG, PLP1, CNPase) was quantified following UBE3A depletion timed from iOPCs to pre-iOLs, normalized against TUBB1. and compared to the iOPC+siNC control condition (set at 1.0). n=4 experiments.

[3] = tested on: AS iOPCs (UBE3A truncation mutation); test: Proliferation of AS patient-derived iOPCs (EdU, Ki67); format: cell-based, human; settings: 10 μM, 24 hours, vs vehicle
From the text: FIGS. 25A-25I depict the role of UBE3A via ESR-β signaling on OPC proliferation and oligodendrocyte differentiation. FIG. 25A: qPCR to evaluate the differentiation and maturation for myelination of iOPCs after persistent UBE3A knockdown, by measuring mRNA transcripts of UBE3A and myelination markers MBP and PLP1 in iOPCs treated with siNC or siUBE3A and differentiated in vitro. MBP and PLP1 mRNA expression decreased in iOLs treated with siUBE3A. n=3 independent experiments. FIG. 25B: In vitro myelination assays analyzed the effect of persistent UBE3A knockdown on iOPCs differentiation and maturation in nano-fiber-based cultures, with immunofluorescent staining of MBP (magenta) and DAPI (blue) and imaging of nano-fibers (grey). Quantification by the area (left graph) and density (right graph) of MBP fluorescent signals (normalized to siNC=1.0). MBP area and intensity decreased in cells treated with siUBE3A. n=3 experiments. Scale bar: 25 μm. […] Protein levels of ESR-β in UBE3A-deficient iOPCs and subsequently differentiated iOLs were quantified, normalized against the loading control GAPDH, and expressed relative to the iOPC+siNC control condition (set at 1.0). […] Levels of Ki67 and Myelin Associated Glycoprotein (MAG) were measured in UBE3A-deficient iOPCs and iOLs differentiated from them, normalized against GAPDH, and compared to the iOPC+siNC condition. n=4 experiments. […]

[4] = rodents and dogs; cited from earlier work

For Oc1ccc(C2(c3ccccc3F)CCC(F)(F)CC2)cc1 [AC-186], the EdU staining [1] was “increased EdU staining”, the “oligodendrocyte differentiation (MAG, CNPase) with treatment at various stages, FIG. 26C” value ([2]; iOPC to pre-iOL to iOL stages) was “beneficial effects on differentiation were observed when administered during the iOPC stage” and the “oligodendrocyte differentiation (MAG), FIG. 25D” value ([2]; UBE3A-deficient iOLs, clemastine (2.5 μM), 3 days) was “no impact on differentiation”. The “ratio of EdU positive iOPCs (proliferation)” value ([3]; AS iOPCs) was “significantly enhanced the proliferation; also recorded: increased”, the Ki67 expression ([3]; AS-derived OPCs) was “increased Ki67 expression” and the bioavailability [4] was “satisfactory bioavailability; also recorded: effective bioavailability”.
